Assay results as given in the NIST ThermoML archive (doi:10.1016/j.fluid.2008.03.004).

Assay: xn = mol fraction of the nth substance listed
Settings: 101 kPa, Liquid; for speed of sound: Sing-around technique in a fixed-path interferometer

COC(C)(C)C [2-methoxy-2-methylpropane] + Cc1ccc(C)cc1
Settings	mass density [kg/m3]	speed of sound [m/s]
305.65 K, x1 = 0.051	844.579	–
305.65 K, x1 = 0.111	837.921	–
305.65 K, x1 = 0.199	827.849	–
305.65 K, x1 = 0.297	816.672	–
305.65 K, x1 = 0.394	805.171	–
305.65 K, x1 = 0.5	792.236	–
305.65 K, x1 = 0.591	780.907	–
305.65 K, x1 = 0.7	767.085	–
305.65 K, x1 = 0.799	753.909	–
305.65 K, x1 = 0.898	740.58	–
305.65 K, x1 = 0.949	733.654	–
305.65 K, x1 = 1	726.444	–
308.15 K, x1 = 0.051	842.382	1255.6
308.15 K, x1 = 0.111	835.701	1241.2
308.15 K, x1 = 0.199	825.592	1218.5
308.15 K, x1 = 0.297	814.375	1193
308.15 K, x1 = 0.394	802.832	1166.6
308.15 K, x1 = 0.5	789.848	1136.9
308.15 K, x1 = 0.591	778.473	1111.4
308.15 K, x1 = 0.7	764.594	1080.2
308.15 K, x1 = 0.799	751.361	1050.5
308.15 K, x1 = 0.898	737.971	1020.6
308.15 K, x1 = 0.949	731.009	1004.7
308.15 K, x1 = 1	723.763	990.99
310.65 K, x1 = 0.051	840.182	1245.6
310.65 K, x1 = 0.111	833.476	1230.9
310.65 K, x1 = 0.199	823.333	1208.2
310.65 K, x1 = 0.297	812.074	1182.6
310.65 K, x1 = 0.394	800.49	1156.1
310.65 K, x1 = 0.5	787.456	1126.2
310.65 K, x1 = 0.591	776.037	1100.6
310.65 K, x1 = 0.7	762.097	1069.3
310.65 K, x1 = 0.799	748.806	1039.4
310.65 K, x1 = 0.898	735.351	1009.4
310.65 K, x1 = 0.949	728.354	993.41
310.65 K, x1 = 1	721.069	979.62
313.15 K, x1 = 0.051	837.972	1235.6
313.15 K, x1 = 0.111	831.247	1220.7
313.15 K, x1 = 0.199	821.068	1197.8
313.15 K, x1 = 0.297	809.766	1172.2
313.15 K, x1 = 0.394	798.142	1145.5
313.15 K, x1 = 0.5	785.055	1115.5
313.15 K, x1 = 0.591	773.588	1089.9
313.15 K, x1 = 0.7	759.588	1058.4
313.15 K, x1 = 0.799	746.238	1028.3
313.15 K, x1 = 0.898	732.717	998.27
313.15 K, x1 = 0.949	725.685	982.13
313.15 K, x1 = 1	718.357	968.16
315.65 K, x1 = 0.051	835.765	1225.6
315.65 K, x1 = 0.111	829.014	1210.5
315.65 K, x1 = 0.199	818.798	1187.5
315.65 K, x1 = 0.297	807.454	1161.8
315.65 K, x1 = 0.394	795.788	1135
315.65 K, x1 = 0.5	782.649	1104.9
315.65 K, x1 = 0.591	771.132	1079.1
315.65 K, x1 = 0.7	757.069	1047.5
315.65 K, x1 = 0.799	743.66	1017.3
315.65 K, x1 = 0.898	730.073	987.1
315.65 K, x1 = 0.949	723.003	970.91
315.65 K, x1 = 1	715.636	956.8
318.15 K, x1 = 0.051	833.554	1215.7
318.15 K, x1 = 0.111	826.778	1200.4
318.15 K, x1 = 0.199	816.524	1177.3
318.15 K, x1 = 0.297	805.138	1151.5
318.15 K, x1 = 0.394	793.428	1124.6
318.15 K, x1 = 0.5	780.236	1094.3
318.15 K, x1 = 0.591	768.668	1068.5
318.15 K, x1 = 0.7	754.544	1036.7
318.15 K, x1 = 0.799	741.073	1006.4
318.15 K, x1 = 0.898	727.417	976.02
318.15 K, x1 = 0.949	720.308	959.76
318.15 K, x1 = 1	712.897	945.54
320.65 K, x1 = 0.051	831.342	1205.8
320.65 K, x1 = 0.111	824.54	1190.3
320.65 K, x1 = 0.199	814.248	1167.1
320.65 K, x1 = 0.297	802.819	1141.1
320.65 K, x1 = 0.394	791.063	1114.2
320.65 K, x1 = 0.5	777.817	1083.8
320.65 K, x1 = 0.591	766.199	1057.9
320.65 K, x1 = 0.7	752.007	1025.9
320.65 K, x1 = 0.799	738.474	995.49
320.65 K, x1 = 0.898	724.747	964.93
320.65 K, x1 = 0.949	717.599	948.61
320.65 K, x1 = 1	710.141	934.24
323.15 K, x1 = 0.051	829.134	1196
323.15 K, x1 = 0.111	822.307	1180.4
323.15 K, x1 = 0.199	811.976	1157.1
323.15 K, x1 = 0.297	800.501	1131
323.15 K, x1 = 0.394	788.703	1103.9
323.15 K, x1 = 0.5	775.403	1073.3
323.15 K, x1 = 0.591	763.728	1047.4
323.15 K, x1 = 0.7	749.471	1015.2
323.15 K, x1 = 0.799	735.877	984.7
323.15 K, x1 = 0.898	722.077	954
323.15 K, x1 = 0.949	714.887	937.58
323.15 K, x1 = 1	707.381	922.97
